In PubChem BioAssay (NCI) one finds TGI and GI50 data, which are given here for four compounds.

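96-well plates; 48 h exposure; 5 concentrations. Endpoints by linear interpolation between flanking doses. Not reached: highest tested concentration assigned. At the GI50, growth is halved. At the TGI there is no net growth.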 Some results are limits rather than exact numbers.

Test systems include SK-MEL-2 melanoma; RPMI-8226 leukemia; UACC-62 melanoma; SK-OV-3 ovarian; SF-268 CNS; ACHN renal; HOP-62 NSCLC; UO-31 renal; OVCAR-8 ovarian; SNB-19 CNS.
Common to all, as to test: DTP human tumour cell line panel, 48 h

In general, TGI refers to the concentration at which net growth stops. As for `CCc1cc(CCC(=O)Nc2c(C)cccc2C)[nH]n1`, the TGI in the assay with SK-MEL-2 melanoma, in the assay on RPMI-8226 leukemia, with UACC-62 melanoma, in the assay with SK-OV-3 ovarian, in the assay on SF-268 CNS and with ACHN renal was over 100 µM each time. The TGI in the assay with HOP-62 NSCLC, in the assay on UO-31 renal, in the assay with OVCAR-8 ovarian and with SNB-19 CNS was over 100 µM in each case.
As to `CC(=O)OC1CC2C(C)(C)C(=O)C=C[C@]2(C)C2CCC3(C)C(=CC(=O)C3c3ccoc3)[C@]12C` (stereo not given in full), the TGI in the assay with SK-MEL-2 melanoma is 34.5 µM; in the assay with RPMI-8226 leukemia, 36.1 µM; in the assay with UACC-62 melanoma it was 31.6 µM; with SK-OV-3 ovarian, 35.6 µM; with SF-268 CNS, 33.1 µM; with ACHN renal, 40.1 µM. Also, the TGI was found to be 31.1 µM with HOP-62 NSCLC, 33 µM in the assay on UO-31 renal, 41 µM in the assay with OVCAR-8 ovarian and 29.2 µM in the assay with SNB-19 CNS.
As to `O=c1[nH]c2cc(Cl)ccc2nc1/C(=N\O)C(O)c1ccc([N+](=O)[O-])cc1` (stereo not given), the TGI in the assay with SK-MEL-2 melanoma, in the assay with RPMI-8226 leukemia, with UACC-62 melanoma, with SK-OV-3 ovarian, with SF-268 CNS and with ACHN renal was over 100 µM in each case. The concentration for total growth inhibition (TGI) in the assay on HOP-62 NSCLC, with UO-31 renal, in the assay on OVCAR-8 ovarian and in the assay on SNB-19 CNS was over 100 µM each time.
What is called GI50 is the concentration at which growth is held to half of that of the control. Consider `COc1cc(Nc2nc3ccccc3cc2C(=O)Nc2ccc(F)c(F)c2)cc(OC)c1OC`, for which the GI50 is 2100 nM in the assay on SK-MEL-2 melanoma; 2160 nM in the assay with RPMI-8226 leukemia; 1680 nM with UACC-62 melanoma; 2650 nM with SK-OV-3 ovarian; 3.96 µM in the assay with SF-268 CNS; 2510 nM with ACHN renal. Also, the GI50 with HOP-62 NSCLC is 2730 nM; in the assay with UO-31 renal, 2510 nM; in the assay on OVCAR-8 ovarian, 2770 nM; in the assay on SNB-19 CNS it was 3.55 µM. Moreover, the TGI with SK-MEL-2 melanoma was 5.98 µM; with RPMI-8226 leukemia, 6.07 µM; in the assay on UACC-62 melanoma it was 4.46 µM; in the assay with SK-OV-3 ovarian, 7.8 µM; in the assay on SF-268 CNS it was over 100 µM; with ACHN renal, 7.59 µM. The total growth inhibition concentration (TGI) in the assay with HOP-62 NSCLC was 12.2 µM; with UO-31 renal it was 9.35 µM; in the assay with OVCAR-8 ovarian, 7.85 µM; in the assay with SNB-19 CNS, over 100 µM.
